Test [1] deals with MDA-MB-231 cells. Nature of the test: Immunofluorescent staining assay (F-actin localization). The class given is cell-based. The following applies: Rhodamine-Phalloidin staining, various times. The method, then:
MDA-MB-231 cells were grown on the Secureslip™ (Sigma) cell culture glass cover slip to a confluence of 50 to 70%, and then treated with or without the compound of Example 1 (B038) for various times. The cells were gently washed with cold HBSS, and then fixed with 4% paraformaldehyde-containing HBSS […] for 10 minutes at room temperature. After washing with HBSS, permeabilization with 0.1% Triton X-100 was performed for 10 minutes at room temperature. After washing twice with HBSS, the cells were blocked with 3% BSA, 0.2% Tween20 and 0.2% gelatin in HBSS for 1 hour at room temperature, and incubated with primary antibody at 37° C. for 2 hours. F-actin was stained by Rhodamine-Phalloidin (Thermo Fisher Scientific) for 2 hours at 37° C., followed by washing 3 times with HBSS for 20 minutes. Coverslips were mounted with an anti-fading solution and viewed using an ×63 objective lens of an LSM510 META (Zeiss) laser scanning confocal microscope.

Another test deals with recombinant Nm23-H1 (Homo sapiens, UniProt P15531). Nature of the test: NDPK assay with recombinant Nm23-H1. The format is biochemical. Also noted: NDPK activity: unit not given here. The following applies: for NDPK activity: 5 ng recombinant Nm23-H1, 10 min room temperature, then 5 μM ADP 1 min, compound concentration not given. The method, then:
NDPK assay was performed by incubating 5 ng of recombinant Nm23-H1 with each of test compounds (Examples 1 to 3) in NDPK assay buffer (20 mM HEPES, 3 mM MgCl2) at room temperature for 10 minutes, followed by reaction with 5 μM ADP for 1 minute.

Test [2] has as its system MDA-MB-231 cells. As to the kind of experiment: Matrigel invasion assay. The format is cell-based. The following applies: Transwell with Matrigel, 24 hours at 37° C. The method, then:
Invasion assay was performed using a Transwell® unit (Corning, USA) with a polycarbonate membrane (pore size: 8 μm), with or without Matrigel coating. The membrane was coated with 50 μg Matrigel™-based membrane matrix (BD Bioscience, USA). 5×10^4 MDA-MB-231 cells were seeded into the upper chamber in a serum-free medium together with the compound of Example 1, and the lower chamber was filled with a medium containing 10% FBS. After incubation for 24 hours at 37° C., the cells on the upper side of the membrane were removed. The cells invading to the underside of the membrane were stained with 0.5% Crystal violet in 25% methanol and counted at 100-fold magnification under a microscope.

Sequence of recombinant Nm23-H1 (P15531 whole entry): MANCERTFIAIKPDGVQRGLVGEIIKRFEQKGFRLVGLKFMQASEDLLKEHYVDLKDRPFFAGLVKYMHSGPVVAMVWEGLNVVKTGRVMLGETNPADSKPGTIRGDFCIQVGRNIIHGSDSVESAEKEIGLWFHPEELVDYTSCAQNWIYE

As for `COc1ccc(CCc2ccccc2-c2ccc(OC)c(OC)c2)cc1OC` [Example 1], in the test with MDA-MB-231 cells [1], the “localization of F-actin (ruffles, cell-to-cell contact; FIG. 3)” value was “ruffles decreased and cell-to-cell contact increased”. In addition, the NDPK activity on recombinant Nm23-H1 worked out at 6.55. The “NDPK activity-increasing effect at various concentrations (FIG. 1)” value at recombinant Nm23-H1 (various concentrations) is on record as “excellent effect of increasing NDPK activity even at low concentrations”. Moreover, the “cell invasion (counting invaded cells, FIGS. 2A and 2B)” value in the test on MDA-MB-231 cells [2] is “significantly suppressed cell invasion”.

On to `COc1ccc(-c2ccccc2C2OC2c2ccc(OC)c(OC)c2)cc1OC` (centres unmarked) [Example 2, 2-(3′,4′-dimethoxy-[1,1′-biphenyl]-2-yl)-3-(3,4-dimethoxyphenyl)oxirane], for which, on recombinant Nm23-H1, the NDPK activity was determined as 4.08.

As for `COc1ccc(NC(=O)c2ccccc2-c2ccc(OC)c(OC)c2)cc1OC` [Example 3, N-(3,4-dimethoxyphenyl)-3′,4′-dimethoxy-[1,1′-biphenyl]-2-carboxamide], the NDPK activity on recombinant Nm23-H1 was found to be 1.32.

As for `COc1ccc(C(=O)Nc2ccccc2-c2ccc(OC)c(OC)c2)cc1OC` [Example 4, N-(3′,4′-dimethoxy-[1,1′-biphenyl]-2-yl)-3,4-dimethoxybenzamide], the NDPK activity at recombinant Nm23-H1 was determined as 1.52.

As to `COc1cc(-c2ccccc2CCc2ccc(OC)c(OC)c2)ccc1O` [Example 5, 2′-(3,4-dimethoxyphenethyl)-3-methoxy-[1,1′-biphenyl]-4-ol], at recombinant Nm23-H1, the NDPK activity is on record as 4.

With `COc1ccc(-c2ccccc2CCc2ccc(OC)c(OC)c2)cc1O` [Example 6, 2′-(3,4-dimethoxyphenethyl)-4-methoxy-[1,1′-biphenyl]-3-ol], the NDPK activity at recombinant Nm23-H1 stood at 1.9.

Take `COc1ccc(CCc2ccccc2-c2ccc(OC)c(OC)c2)cc1O` [Example 7, 5-(2-(3′,4′-dimethoxy-[1,1′-biphenyl]-2-yl)ethyl)-2-methoxyphenol]: the NDPK activity on recombinant Nm23-H1 amounted to 3.5.

Consider `COc1cc(CCc2ccccc2-c2ccc(OC)c(OC)c2)ccc1O` [Example 10, 4-(2-(3′,4′-dimethoxy-[1,1′-biphenyl]-2-yl)ethyl)-2-methoxyphenol], for which the NDPK activity on recombinant Nm23-H1 was found to be 2.6.

Source of the values: patent US11939308B2, “Biphenyl derivative compound and use thereof” (EWHA UNIVERSITY—INDUSTRY COLLABORATION FOUNDATION, priority 2018, dated 2024).
